In paper PMC6199744, “Development of Chemical Proteomics for the Folateome and Analysis of the Kinetoplastid Folateome” (ACS Infectious Diseases, 2018):
Like-named read-outs stand apart in the source and are kept apart here.

System: T. brucei lysate proteins
Type: binding, Trypanosoma brucei

CCCCCCOc1cccc(Cc2cnc(N)nc2N)c1 [compound 2]
fold change (relative to vehicle control = 1, protein TB09.160.3270 ATP-DEPENDENT DEAD BOX HELICASE, PUTATIVE): 1 | fold change (relative to vehicle control = 1, protein TB09.160.4250 TR[…]): 0.99 | fold change (relative to vehicle control = 1, protein TB09.211.3540 GLYCEROL KINASE, GLYCOSOMAL): 0.98 | fold change (relative to vehicle control = 1, protein TB11.01.1290 14-3-3-I PROTEIN): 0.88 | fold change (relative to vehicle control = 1, protein TB11.02.0730 METACASPASE): 1.1 | fold change (relative to vehicle control = 1, protein TB11.02.4700 14-3-3 PROTEIN): 1 | fold change (relative to vehicle control = 1, protein TB11.03.0815 DYNEIN LIGHT CHAIN): 0.94 | fold change (relative to vehicle control = 1, protein TB11.50.0007 DYNEIN LIGHT CHAIN LC8, PUTATIVE): 0.99 | fold change (relative to vehicle control = 1, protein TB427TMP.01.1830 HY[…], CONSERVED): 1 | fold change (relative to vehicle control = 1, protein TB427TMP.01.6880 CYTOSOLIC COAT PROTEIN, PUTATIVE): 1 | fold change (relative to vehicle control = 1, protein TB427TMP.01.7490 HY[…], CONSERVED): 0.96 | fold change (relative to vehicle control = 1, protein TB427TMP.01.7530 HY[…], CONSERVED): 0.98 | fold change (relative to vehicle control = 1, protein TB427TMP.02.1460 HY[…], CONSERVED): 0.95 | fold change (relative to vehicle control = 1, protein TB427TMP.02.2120 NUCLEOPORIN 48): 0.94 | fold change (relative to vehicle control = 1, protein TB427TMP.02.2970 KINESIN, PUTATIVE): 0.89 | fold change (relative to vehicle control = 1, protein TB427TMP.02.3120 MALIC ENZYME, PUTATIVE): 0.98 | fold change (relative to vehicle control = 1, protein TB427TMP.02.4550 HY[…], CONSERVED): 0.99 | fold change (relative to vehicle control = 1, protein TB427TMP.02.5450 GLUCOSE-REGULATED PROTEIN 78, PUTATIVE): 0.98 | fold change (relative to vehicle control = 1, protein TB427TMP.02.5660 HY[…], CONSERVED): 0.85 | fold change (relative to vehicle control = 1, protein TB427TMP.03.0090 RIBOKINASE, PUTATIVE): 0.93 | fold change (relative to vehicle control = 1, protein TB427TMP.03.0460 HY[…], CONSERVED): 0.99 | fold change (relative to vehicle control = 1, protein TB427TMP.160.4770 PROTEIN KINASE, PUTATIVE): 1 | fold change (relative to vehicle control = 1, protein TB427TMP.160.4910 FLAVOPROTEIN MONOOXYGENASE, PUTATIVE): 0.93 | fold change (relative to vehicle control = 1, protein TB427TMP.18.0005 HY[…], CONSERVED): 0.95 | fold change (relative to vehicle control = 1, protein TB427TMP.39.0006 T[…] EIF2B DELTA SUBUNIT, PUTATIVE): 0.96 | fold change (relative to vehicle control = 1, protein TB427.01.4050 PROTEIN P[…] EF-HAND DOMAINS (PPEF)): 0.95 | fold change (relative to vehicle control = 1, protein TB427.03.3160 POLY(A) POLYMERASE): 0.78 | fold change (relative to vehicle control = 1, protein TB427.03.3560 HY[…], CONSERVED): 0.98 | fold change (relative to vehicle control = 1, protein TB427.03.5420 PROTEIN TRANSPORT PROTEIN SEC24): 0.94 | fold change (relative to vehicle control = 1, protein TB427.04.1510 PHOSPHOLIPID-TRA[…], PUTATIVE): 0.93 | fold change (relative to vehicle control = 1, protein TB427.05.1320 HY[…], CONSERVED): 0.93 | fold change (relative to vehicle control = 1, protein TB427.05.2320 HY[…], CONSERVED): 0.8 | fold change (relative to vehicle control = 1, protein TB427.05.300 THYMINE-7-HYDROXYLASE, PUTATIVE): 0.92 | fold change (relative to vehicle control = 1, protein TB427.05.3800 GLUTAMINE HYDROLYSING (NOT AMMONIA-DEPENDENT) […] PHOSPHATE SYNTHASE, PUTATIVE): 0.85 | fold change (relative to vehicle control = 1, protein TB427.06.2550 RNA-BINDING PROTEIN, PUTATIVE): 0.84 | fold change (relative to vehicle control = 1, protein TB427.06.3650 ADP-RI[…], PUTATIVE): 0.97 | fold change (relative to vehicle control = 1, protein TB427.06.3860 HY[…], CONSERVED): 0.94 | fold change (relative to vehicle control = 1, protein TB427.07.2570 MRNA […], PUTATIVE): 0.89 | fold change (relative to vehicle control = 1, protein TB427.08.3150 T-COMPLEX PROTEIN 1, GAMMA SUBUNIT, PUTATIVE): 0.92 | fold change (relative to vehicle control = 1, protein TB427.08.3490 HY[…], CONSERVED): 1.2 | fold change (relative to vehicle control = 1, protein TB427.08.5460 FLAGELLAR CALCIUM-BINDING PROTEIN): 0.93 | fold change (relative to vehicle control = 1, protein TB427.08.5760 HY[…], CONSERVED): 0.96 | fold change (relative to vehicle control = 1, protein TB427.08.6110 HY[…], CONSERVED): 0.87 | fold change (relative to vehicle control = 1, protein TB427.10.11930 NAD OR NADP DEPENDENT OXIDOREDUCTASE, PUTATIVE): 0.92 | fold change (relative to vehicle control = 1, protein TB427.10.13880 HY[…], CONSERVED): 0.96 | fold change (relative to vehicle control = 1, protein TB427.10.14140 PYRUVATE KINASE 1): 1.1 | fold change (relative to vehicle control = 1, protein TB427.10.14910 SA[…] GLYCOPROTEIN, PUTATIVE): 0.99 | fold change (relative to vehicle control = 1, protein TB427.10.15180 […] PROTEIN, PUTATIVE): 0.88 | fold change (relative to vehicle control = 1, protein TB427.10.2350 PYRUVATE DEH[…] E3 BINDING PROTEIN, PUTATIVE): 0.77 | fold change (relative to vehicle control = 1, protein TB427.10.4940 NUCLEAR DBF2-RELATED KINASE): 1 | fold change (relative to vehicle control = 1, protein TB427.10.7630 HY[…], CONSERVED): 1 | fold change (relative to vehicle control = 1, protein TB927.10.12840 MIT[…] PROTEIN, PUTATIVE): 0.98 | fold change (relative to vehicle control = 1, protein TB927.10.14980 INTR[…] PROTEIN IFT52, PUTATIVE): 0.98 | fold change (relative to vehicle control = 1, protein TB927.1.2400 ALPHA TUBULIN): 1 | fold change (relative to vehicle control = 1, protein TB927.10.4180 TFIIF-[…] PHOSPHATASE, PUTATIVE): 0.94 | fold change (relative to vehicle control = 1, protein TB927.10.5330 40S RIBOSOMAL PROTEIN S18, PUTATIVE): 0.96 | fold change (relative to vehicle control = 1, protein TB927.10.6670 DYNEIN LIGHT CHAIN, PUTATIVE): 0.94 | fold change (relative to vehicle control = 1, protein TB927.2.2440 […]-ATPASE SUBUNIT 6): 1.1 | fold change (relative to vehicle control = 1, protein TB927.3.1120 GTP-BINDING NUCLEAR PROTEIN RTB2, PUTATIVE): 0.95 | fold change (relative to vehicle control = 1, protein TB927.3.3490 HIGH MOBILITY GROUP PROTEIN, PUTATIVE): 0.99 | fold change (relative to vehicle control = 1, protein TB927.4.4650 […] SYNTHASE, PUTATIVE): 0.56 | fold change (relative to vehicle control = 1, protein TB927.4.5310 SERINE/THREONINE-PROTEIN KINASE A, PUTATIVE): 0.97 | fold change (relative to vehicle control = 1, protein TB927.5.1930 HY[…], CONSERVED): 0.99 | fold change (relative to vehicle control = 1, protein TB927.6.2200 HY[…], CONSERVED): 0.99 | fold change (relative to vehicle control = 1, protein TB927.6.4140 PAR[…] COMPONENT, PUTATIVE): 0.94 | fold change (relative to vehicle control = 1, protein TB927.7.2700 NADH-CYTOCHROME B5 REDUCTASE, PUTATIVE): 0.78 | fold change (relative to vehicle control = 1, protein TB927.7.4480 ADENOSINE 5'-[…], PUTATIVE): 0.99 | fold change (relative to vehicle control = 1, protein TB927.8.1510 ATP-DEPENDENT DEAD/H RNA HELICASE, PUTATIVE): 0.99 | fold change (vs vehicle control, protein ADENOSINE TRANSPORTER 1 (CZT00028614.1)): 1.29 | fold change (vs vehicle control, protein TB11.01.4370 HY[…], CONSERVED): 0.99 | fold change (vs vehicle control, protein TB11.02.1220 […] SUBUNIT 2): 0.97 | fold change (vs vehicle control, protein TB427TMP.01.1540 HY[…], CONSERVED): 1.1 | fold change (vs vehicle control, protein TB427TMP.01.5690 DRBD4): 0.99 | fold change (vs vehicle control, protein TB427TMP.01.8510 T-COMPLEX PROTEIN 1, ALPHA SUBUNIT, PUTATIVE): 0.81 | fold change (vs vehicle control, protein TB427TMP.02.5620 Tb427tmp.02.5620): 0.97 | fold change (vs vehicle control, protein TB427TMP.160.4240 […] PROTEIN-LIKE PROTEIN): 0.98 | fold change (vs vehicle control, protein TB427TMP.211.2730 GIM5A PROTEIN): 1.45 | fold change (vs vehicle control, protein TB427.03.4910 SIGNAL PEPTIDE PEPTIDASE, PUTATIVE): 1 | fold change (vs vehicle control, protein TB427.05.2890 HY[…], CONSERVED): 0.9 | fold change (vs vehicle control, protein TB427.05.3170 RIBOSE-PHOSPHATE PYROPHOSPHOKINASE, PUTATIVE): 1.2 | fold change (vs vehicle control, protein TB427.06.3630 SPHINGOSINE 1-PHOSPHATE LYASE, PUTATIVE): 0.97 | fold change (vs vehicle control, protein TB427.06.4770 HY[…], CONSERVED): 1 | fold change (vs vehicle control, protein TB427.08.550 PEPTIDE […] REDUCTASE, PUTATIVE): 0.93 | fold change (vs vehicle control, protein TB427.10.1170 INTR[…] PROTEIN IFT172, PUTATIVE): 0.83 | fold change (vs vehicle control, protein TB427.10.13660 HY[…], CONSERVED): 0.93 | fold change (vs vehicle control, protein TB427.10.14550 ATP-DEPENDENT DEAD/H RNA HELICASE, PUTATIVE): 1.1 | fold change (vs vehicle control, protein TB427.10.1510 NOT1): 0.9 | fold change (vs vehicle control, protein TB427.10.2290 CHAPERONE PROTEIN DNAJ, PUTATIVE): 0.96 | fold change (vs vehicle control, protein TB427.10.8190 T-COMPLEX PROTEIN 1, THETA SUBUNIT, PUTATIVE): 0.91 | fold change (vs vehicle control, protein TB927.10.2100 […] 1-ALPHA): 0.99 | fold change (vs vehicle control, protein TB927.10.540 ATP-DEPENDENT DEAD/H RNA HELICASE, PUTATIVE): 0.95 | fold change (vs vehicle control, protein TB927.2.4930 ESTERASE, PUTATIVE): 0.94 | fold change (vs vehicle control, protein TB927.5.1630 HY[…], CONSERVED): 0.99 | fold change (vs vehicle control, protein TB927.7.2750 PROTEIN KINASE, PUTATIVE): 0.79 | fold change (vs vehicle control, protein TB927.8.4330 SMALL GTP-BINDING PROTEIN RAB11): 1
